Measured values published in US12522601B2, “1,3,4-oxadiazole derivative compounds as histone deacetylase 6 inhibitor, and the pharmaceutical composition comprising the same” (CHONG KUN DANG PHARMACEUTICAL CORP., priority 2020, dated 2026).

Legend:
human recombinant HDAC6 = biological target: T1, human recombinant HDAC6 (Homo sapiens, UniProt Q9UBN7); experiment: In vitro HDAC enzyme activity inhibition assay, HDAC6 (HDAC Fluorimetric Drug Discovery Kit); type: biochemical; settings: for HDAC6 Selectivity (fold): HDAC6 versus HDAC1; for IC50: human recombinant HDAC6, same protocol as the HDAC1 test
T1 construct: purchased Calbiochem Inc. 382180
T1 sequence (Q9UBN7 1-1215): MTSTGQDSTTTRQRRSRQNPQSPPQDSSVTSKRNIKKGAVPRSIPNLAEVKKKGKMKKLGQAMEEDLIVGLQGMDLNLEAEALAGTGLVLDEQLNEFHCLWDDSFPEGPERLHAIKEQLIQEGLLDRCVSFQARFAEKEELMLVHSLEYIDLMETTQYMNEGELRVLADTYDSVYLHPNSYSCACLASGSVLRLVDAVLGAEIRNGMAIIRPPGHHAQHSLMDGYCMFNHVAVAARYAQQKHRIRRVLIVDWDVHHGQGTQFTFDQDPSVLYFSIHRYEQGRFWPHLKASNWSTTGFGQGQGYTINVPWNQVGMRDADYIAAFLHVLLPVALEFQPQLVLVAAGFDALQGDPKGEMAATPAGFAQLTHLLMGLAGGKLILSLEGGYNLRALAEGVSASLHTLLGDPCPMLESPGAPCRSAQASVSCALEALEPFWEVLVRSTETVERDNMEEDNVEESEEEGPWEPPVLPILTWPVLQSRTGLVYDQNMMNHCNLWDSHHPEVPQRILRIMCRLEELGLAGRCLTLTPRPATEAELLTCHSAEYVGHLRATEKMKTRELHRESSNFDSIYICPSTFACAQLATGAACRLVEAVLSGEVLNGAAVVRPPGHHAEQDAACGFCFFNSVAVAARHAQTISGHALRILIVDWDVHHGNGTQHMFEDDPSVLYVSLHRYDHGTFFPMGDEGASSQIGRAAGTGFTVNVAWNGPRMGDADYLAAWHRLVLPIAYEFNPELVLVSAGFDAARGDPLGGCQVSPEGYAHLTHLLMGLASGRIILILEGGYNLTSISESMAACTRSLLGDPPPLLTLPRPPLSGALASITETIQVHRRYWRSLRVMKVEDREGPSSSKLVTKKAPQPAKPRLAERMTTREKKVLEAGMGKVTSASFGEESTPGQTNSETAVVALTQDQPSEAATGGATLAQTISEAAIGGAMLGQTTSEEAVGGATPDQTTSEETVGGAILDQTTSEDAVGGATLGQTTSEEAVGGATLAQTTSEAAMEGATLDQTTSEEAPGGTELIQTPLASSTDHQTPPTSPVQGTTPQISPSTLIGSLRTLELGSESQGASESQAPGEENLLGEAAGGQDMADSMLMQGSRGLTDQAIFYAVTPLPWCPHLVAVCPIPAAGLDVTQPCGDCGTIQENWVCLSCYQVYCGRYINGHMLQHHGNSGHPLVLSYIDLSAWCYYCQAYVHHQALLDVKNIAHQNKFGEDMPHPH
Method in brief: (§1)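 Both HDAC1 and HDAC6 (human recombinant, 0.3 μg) tested identically: 10 μM fluorogenic Fluor de Lys-SIRT1 substrate, reaction 60 min at 30° C, developer added for 30 min. IC50 calculated from Ex 360/Em 460 signal over 5-fold serial dilutions.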

human recombinant HDAC1 = biological target: T2, human recombinant HDAC1 (Homo sapiens, UniProt Q13547); experiment: In vitro HDAC enzyme activity inhibition assay, HDAC1 (HDAC Fluorimetric Drug Discovery Kit); type: biochemical; settings: human recombinant HDAC1, Fluor de Lys-SIRT1 substrate 10 μM, 30° C. for 60 minutes
T2 construct: purchased Enzo Life Sciences, Inc. BML-SE456
T2 sequence (Q13547 whole entry): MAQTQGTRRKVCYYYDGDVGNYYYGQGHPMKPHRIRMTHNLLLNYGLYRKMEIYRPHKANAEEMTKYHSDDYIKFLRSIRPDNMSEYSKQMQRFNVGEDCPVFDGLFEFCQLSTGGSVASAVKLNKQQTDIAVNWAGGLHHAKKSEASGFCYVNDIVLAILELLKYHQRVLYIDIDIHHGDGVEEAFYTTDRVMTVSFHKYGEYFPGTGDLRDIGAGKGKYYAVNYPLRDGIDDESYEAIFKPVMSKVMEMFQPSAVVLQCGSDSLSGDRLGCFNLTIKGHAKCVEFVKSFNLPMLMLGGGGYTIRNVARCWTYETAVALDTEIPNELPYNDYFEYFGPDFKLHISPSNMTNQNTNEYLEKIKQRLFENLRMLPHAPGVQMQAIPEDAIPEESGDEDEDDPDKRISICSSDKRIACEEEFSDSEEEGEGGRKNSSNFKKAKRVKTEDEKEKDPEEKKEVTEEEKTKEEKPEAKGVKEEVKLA
Method in brief: as §1

SMILES	HDAC6 Selectivity (fold) (human recombinant HDAC6)	IC50 (human recombinant HDAC6)	IC50 (human recombinant HDAC1)
O=C(C1CCC1)N1CC(C(=O)N(Cc2cn3ccc(-c4nnc(C(F)F)o4)cc3n2)c2cccc(F)c2)C1 [Compound 4200, 1-(cyclobutanecarbonyl)-N-((7-(5-(difluoromethyl)-1,3,4-oxadiazol-2-yl)imidazo[1,2-a]pyridine-2-yl)methyl)-N-(3-fluorophenyl) azetidine-3-carboxamide]	228 fold	220 nM	> 50000 nM
O=C(C1COC1)N1CC(C(=O)N(Cc2cn3ccc(-c4nnc(C(F)F)o4)cc3n2)c2cccc(F)c2)C1 [Compound 4201, N-((7-(5-(difluoromethyl)-1,3,4-oxadiazol-2-yl)imidazo[1,2-a]pyridin-2-yl)methyl)-N-(3-fluorophenyl)-1-(oxetane-3-carbonyl) azetidine-3-carboxamide]	177 fold	283 nM	> 50000 nM
O=C(C1CN(C(=O)C(F)(F)F)C1)N(Cc1cn2ccc(-c3nnc(C(F)F)o3)cc2n1)c1cccc(F)c1 [Compound 4202, N-((7-(5-(difluoromethyl)-1,3,4-oxadiazol-2-yl)imidazo[1,2-a]pyridin-2-yl)methyl)-N-(3-fluorophenyl)-1-(2,2,2-trifluoroacetyl) azetidine-3-carboxamide]	274 fold	182 nM	> 50000 nM
CS(=O)(=O)N1CC(C(=O)N(Cc2cn3ccc(-c4nnc(C(F)F)o4)cc3n2)c2cccc(F)c2)C1 [Compound 4203, N-((7-(5-(difluoromethyl)-1,3,4-oxadiazol-2-yl)imidazo[1,2-a]pyridin-2-yl)methyl)-N-(3-fluorophenyl)-1-(methylsulfonyl) azetidine-3-carboxamide]	295 fold	170 nM	> 50000 nM
COC(=O)N1CC(C(=O)N(Cc2cn3ccc(-c4nnc(C(F)F)o4)cc3n2)c2cccc(F)c2)C1 [Compound 4204, methyl 3-(((7-(5-(difluoromethyl)-1,3,4-oxadiazol-2-yl)imidazo[1,2-a]pyridin-2-yl)methyl)(3-fluorophenyl)carbamoyl) azetidine-1-carboxylate]	268 fold	187 nM	> 50000 nM
CN(C)C(=O)N1CC(C(=O)N(Cc2cn3ccc(-c4nnc(C(F)F)o4)cc3n2)c2cccc(F)c2)C1 [Compound 4205, N3-((7-(5-(difluoromethyl)-1,3,4-oxadiazol-2-yl)imidazo[1,2-a]pyridin-2-yl)methyl)-N3-(3-fluorophenyl)-N1,N1-dimethylazetidine-1,3-dicarboxamide]	348 fold	144 nM	> 50000 nM
O=C(C1CN(c2ccccn2)C1)N(Cc1cn2ccc(-c3nnc(C(F)F)o3)cc2n1)c1cccc(F)c1 [Compound 4206, N-((7-(5-(difluoromethyl)-1,3,4-oxadiazol-2-yl)imidazo[1,2-a]pyridin-2-yl)methyl)-N-(3-fluorophenyl)-1-(pyridin-2-yl) azetidine-3-carboxamide]	361 fold	138 nM	> 50000 nM
O=C(C1CN(c2ncccn2)C1)N(Cc1cn2ccc(-c3nnc(C(F)F)o3)cc2n1)c1cccc(F)c1 [Compound 4207, N-((7-(5-(difluoromethyl)-1,3,4-oxadiazol-2-yl)imidazo[1,2-a]pyridin-2-yl)methyl)-N-(3-fluorophenyl)-1-(pyrimidin-2-yl) azetidine-3-carboxamide]	298 fold	168 nM	> 50000 nM
O=C(C1CCN(C2CC3(CCC3)C2)CC1)N(Cc1cn2ccc(-c3nnc(C(F)F)o3)cc2n1)c1cccc(F)c1 [Compound 4618, N-((7-(5-(difluoromethyl)-1,3,4-oxadiazol-2-yl)imidazo[1,2-a]pyridin-2-yl)methyl)-N-(3-fluorophenyl)-1-(spiro[3.3]heptan-2-yl)piperidine-4-carboxamide]	308 fold	162 nM	> 50000 nM
O=C(C1CCN(C2CC3(COC3)C2)CC1)N(Cc1cn2ccc(-c3nnc(C(F)F)o3)cc2n1)c1cccc(F)c1 [Compound 4619, N-((7-(5-(difluoromethyl)-1,3,4-oxadiazol-2-yl)imidazo[1,2-a]pyridin-2-yl)methyl)-N-(3-fluorophenyl)-1-(2-oxaspiro[3.3]heptan-6-yl)piperidine-4-carboxamide]	253 fold	197 nM	> 50000 nM
O=C(N1CCN(C2CC3(CCC3)C2)CC1)N(Cc1cn2ccc(-c3nnc(C(F)F)o3)cc2n1)c1cccc(F)c1 [Compound 4620]	190 fold	263 nM	> 50000 nM
O=C(N1CCN(C2CC3(COC3)C2)CC1)N(Cc1cn2ccc(-c3nnc(C(F)F)o3)cc2n1)c1cccc(F)c1 [Compound 4621]	326 fold	153 nM	> 50000 nM
CN1CC2(C1)CN(C(=O)N(Cc1cn3ccc(-c4nnc(C(F)F)o4)cc3n1)c1ccccc1)C2 [Compound 4625, N-((7-(5-(difluoromethyl)-1,3,4-oxadiazol-2-yl)imidazo[1,2-a]pyridin-2-yl)methyl)-6-methyl-N-phenyl-2,6-diazaspiro[3.3]heptan-2-carboxamide]	510 fold	98 nM	> 50000 nM
CC(C)(C)OC(=O)N1CCN(C(=O)N(Cc2cn3ccc(-c4nnc(C(F)(F)F)o4)cc3n2)c2cccc(F)c2)CC1 [Compound 6892, tert-butyl 4-((3-fluorophenyl) ((7-(5-(trifluoromethyl)-1,3,4-oxadiazol-2-yl)imidazo[1,2-a]pyridine-2-yl)methyl)carbamoyl)piperazine-1-carboxylate]	21.2 fold	2360 nM	> 50000 nM
